Measurements as given in the NIST ThermoML archive (doi:10.1016/j.jct.2009.06.021).
Numbers after ± are expanded uncertainties.

Assays:
[1] = for surface tension liquid-gas: Maximal bubble pressure; for mass density: 101.33 kPa, Liquid, Vibrating tube method
[2] = xn = mol fraction of the nth substance listed; details: for surface tension liquid-gas: Maximal bubble pressure; for mass density: 101 kPa, Liquid, Vibrating tube method

CCCCS(=O)CCCC [dibutyl sulfoxide]
[1], 313.15 K
Details | mass density [kg/m3] | surface tension liquid-gas [mN/m]
– | 922.34 ± 4.6 | 28.5 ± 0.3

CCCCS(=O)CCCC [dibutyl sulfoxide] + ClC(Cl)(Cl)Cl
[2], 313.15 K
Details | mass density [kg/m3] | surface tension liquid-gas [mN/m]
x2 = 0.1074 | 963.82 ± 0.25 | –
x2 = 0.2232 | – | 28 ± 0.3
x2 = 0.2288 | 1017.38 ± 0.26 | –
x2 = 0.303 | 1052.44 ± 0.29 | –
x2 = 0.4057 | 1106.17 ± 0.33 | –
x2 = 0.4457 | – | 27.3 ± 0.3
x2 = 0.4984 | 1157.99 ± 0.38 | –
x2 = 0.51 | – | 27 ± 0.3
x2 = 0.5476 | – | 26.7 ± 0.3
x2 = 0.601 | 1222.74 ± 0.44 | –
x2 = 0.6539 | – | 25.9 ± 0.3
x2 = 0.7009 | 1292.11 ± 0.5 | –
x2 = 0.7038 | – | 25.4 ± 0.3
x2 = 0.7998 | – | 24.5 ± 0.3
x2 = 0.8019 | 1370.59 ± 0.57 | –
x2 = 0.8962 | – | 23.5 ± 0.3

CC[S+]([O-])CC [diethyl sulfoxide]
[1]
Details | mass density [kg/m3] | surface tension liquid-gas [mN/m]
298.15 K | 1009.51 ± 0.24 | 34.6 ± 0.3
303.15 K | 1005.14 ± 0.24 | 34.3 ± 0.3
308.15 K | 1000.77 ± 0.23 | 34 ± 0.3
313.15 K | 996.4 ± 0.23 | 33.7 ± 0.3

CC[S+]([O-])CC [diethyl sulfoxide] + ClC(Cl)(Cl)Cl
[2]
Details | mass density, 298.15 K [kg/m3] | mass density, 303.15 K [kg/m3] | mass density, 308.15 K [kg/m3] | mass density, 313.15 K [kg/m3] | surface tension liquid-gas, 298.15 K [mN/m] | surface tension liquid-gas, 303.15 K [mN/m] | surface tension liquid-gas, 308.15 K [mN/m] | surface tension liquid-gas, 313.15 K [mN/m]
x2 = 0.0408 | 1036.23 ± 0.28 | 1031.26 ± 0.28 | 1024.88 ± 0.28 | 1020.51 ± 0.27 | – | – | – | –
x2 = 0.1016 | – | – | – | – | 35 ± 0.3 | 34.7 ± 0.3 | 34.1 ± 0.3 | 33.6 ± 0.3
x2 = 0.1065 | 1074.77 ± 0.31 | 1069.42 ± 0.31 | 1064.04 ± 0.3 | 1058.67 ± 0.3 | – | – | – | –
x2 = 0.218 | – | – | – | – | 33.9 ± 0.3 | 33.4 ± 0.3 | 32.7 ± 0.3 | 32.1 ± 0.3
x2 = 0.2249 | 1142.65 ± 0.36 | 1137.29 ± 0.36 | 1131.92 ± 0.36 | 1126.55 ± 0.35 | – | – | – | –
x2 = 0.3172 | – | – | – | – | 32 ± 0.3 | 31.5 ± 0.3 | 30.9 ± 0.3 | 30.3 ± 0.3
x2 = 0.3231 | 1198.5 ± 0.41 | 1192.67 ± 0.4 | 1186.82 ± 0.4 | 1180.98 ± 0.39 | – | – | – | –
x2 = 0.4093 | – | – | – | – | 30.3 ± 0.3 | 29.8 ± 0.3 | 29.2 ± 0.3 | 28.6 ± 0.3
x2 = 0.4567 | 1273.33 ± 0.47 | 1266.87 ± 0.47 | 1260.4 ± 0.5 | 1253.92 ± 0.46 | – | – | – | –
x2 = 0.4782 | – | – | – | – | 29.1 ± 0.3 | 28.6 ± 0.3 | 28.1 ± 0.3 | 27.6 ± 0.3
x2 = 0.5102 | – | – | – | – | 28.5 ± 0.3 | 28 ± 0.3 | 27.6 ± 0.3 | 27.1 ± 0.3
x2 = 0.6562 | – | – | – | – | 27 ± 0.3 | 26.5 ± 0.3 | 25.9 ± 0.3 | 25.3 ± 0.3
x2 = 0.7363 | 1433.49 ± 0.62 | 1425.5 ± 0.6 | 1417.48 ± 0.6 | 1409.44 ± 0.6 | – | – | – | –
x2 = 0.7512 | – | – | – | – | 26.2 ± 0.3 | 25.7 ± 0.3 | 25.1 ± 0.3 | 24.5 ± 0.3
x2 = 0.8701 | – | – | – | – | 25.3 ± 0.3 | 24.7 ± 0.3 | 24.1 ± 0.3 | 23.5 ± 0.3
x2 = 0.8985 | 1527.46 ± 0.71 | 1519.07 ± 0.7 | 1509.96 ± 0.69 | 1500.84 ± 0.68 | – | – | – | –
x2 = 0.9419 | – | – | – | – | 24.6 ± 0.3 | 24 ± 0.3 | 23.5 ± 0.3 | 22.9 ± 0.3
x2 = 0.9533 | 1558.34 ± 0.74 | 1548.91 ± 0.73 | 1539.42 ± 0.72 | 1529.92 ± 0.71 | – | – | – | –

C[S+](C)[O-] [dimethyl sulfoxide]
[1]
Details | mass density [kg/m3] | surface tension liquid-gas [mN/m]
298.15 K | 1095.35 ± 0.31 | 42.5 ± 0.4
303.15 K | 1090.33 ± 0.3 | 42 ± 0.4
308.15 K | 1085.32 ± 0.3 | 41.5 ± 0.4
313.15 K | 1080.29 ± 0.29 | 41 ± 0.4

CCCS(=O)CCC [dipropyl sulfoxide]
[1]
Details | mass density [kg/m3] | surface tension liquid-gas [mN/m]
298.15 K | 957.77 ± 0.23 | 32.6 ± 0.3
303.15 K | 953.67 ± 0.23 | 32 ± 0.3
308.15 K | 949.58 ± 0.23 | 31.5 ± 0.3
313.15 K | 945.5 ± 0.2 | 31 ± 0.3

CCCS(=O)CCC [dipropyl sulfoxide] + ClC(Cl)(Cl)Cl
[2]
Details | mass density, 298.15 K [kg/m3] | mass density, 303.15 K [kg/m3] | mass density, 308.15 K [kg/m3] | mass density, 313.15 K [kg/m3] | surface tension liquid-gas, 298.15 K [mN/m] | surface tension liquid-gas, 303.15 K [mN/m] | surface tension liquid-gas, 308.15 K [mN/m] | surface tension liquid-gas, 313.15 K [mN/m]
x2 = 0.0837 | 997.89 ± 0.25 | 993.53 ± 0.25 | 989.15 ± 0.25 | 984.79 ± 0.25 | – | – | – | –
x2 = 0.2049 | – | – | – | – | 31.2 ± 0.3 | 30.8 ± 0.3 | 30.4 ± 0.3 | 29.9 ± 0.3
x2 = 0.2132 | 1061.92 ± 0.3 | 1057.03 ± 0.29 | 1052.27 ± 0.29 | 1047.44 ± 0.28 | – | – | – | –
x2 = 0.2784 | 1097.07 ± 0.33 | 1091.98 ± 0.32 | 1086.9 ± 0.3 | 1081.81 ± 0.31 | – | – | – | –
x2 = 0.2998 | – | – | – | – | 30.8 ± 0.3 | 30.4 ± 0.3 | 29.9 ± 0.3 | 29.5 ± 0.3
x2 = 0.4165 | – | – | – | – | 30.4 ± 0.3 | 29.8 ± 0.3 | 29.3 ± 0.3 | 28.7 ± 0.3
x2 = 0.4545 | 1197.46 ± 0.41 | 1191.59 ± 0.4 | 1185.73 ± 0.4 | 1179.84 ± 0.39 | – | – | – | –
x2 = 0.5304 | – | – | – | – | 29.6 ± 0.3 | 28.9 ± 0.3 | 28.2 ± 0.3 | 27.7 ± 0.3
x2 = 0.6109 | – | – | – | – | 28.8 ± 0.3 | 28.1 ± 0.3 | 27.5 ± 0.3 | 26.9 ± 0.3
x2 = 0.6285 | 1305.93 ± 0.5 | 1299.22 ± 0.5 | 1292.38 ± 0.49 | 1285.53 ± 0.49 | – | – | – | –
x2 = 0.704 | 1356.22 ± 0.55 | 1348.94 ± 0.55 | 1341.67 ± 0.54 | 1334.38 ± 0.53 | – | – | – | –
x2 = 0.7078 | – | – | – | – | 27.6 ± 0.3 | 26.9 ± 0.3 | 26.2 ± 0.3 | 25.7 ± 0.3
x2 = 0.8055 | – | – | – | – | 26.3 ± 0.3 | 25.7 ± 0.3 | 25.1 ± 0.3 | 24.5 ± 0.3
x2 = 0.8468 | 1461.39 ± 0.65 | 1453.03 ± 0.64 | 1444.65 ± 0.63 | 1436.24 ± 0.63 | – | – | – | –
x2 = 0.8547 | 1466.95 ± 0.66 | 1458.55 ± 0.65 | 1450.15 ± 0.64 | 1441.7 ± 0.6 | – | – | – | –
x2 = 0.8995 | – | – | – | – | 25.3 ± 0.3 | 24.7 ± 0.3 | 24.1 ± 0.3 | 23.5 ± 0.3
x2 = 0.9178 | 1516.99 ± 0.71 | 1508.02 ± 0.7 | 1499.04 ± 0.69 | 1490.03 ± 0.68 | – | – | – | –
x2 = 0.9588 | 1550.62 ± 0.74 | 1541.21 ± 0.73 | 1531.83 ± 0.72 | 1522.41 ± 0.71 | – | – | – | –

ClC(Cl)(Cl)Cl [tetrachloromethane]
[1]
Details | mass density [kg/m3] | surface tension liquid-gas [mN/m]
298.15 K | 1584.36 ± 0.76 | 24.2 ± 0.3
303.15 K | 1574.61 ± 0.75 | 23.7 ± 0.3
308.15 K | 1564.83 ± 0.74 | 23 ± 0.3
313.15 K | 1554.96 ± 0.73 | 22.3 ± 0.3
